According to publication PMC5218480 (PLoS ONE, 2017):

System: MV-4-11 cells
Assay: Gene expression microarray analysis (Affymetrix PrimeView) and GSEA
Type: cell-based, human
Design: RFU PODN (11730768_x_at) / Fold change /veh PODN (11730768_x_at) / RFU LINC00158 (11744669_a_at) / Fold change /veh LINC00158 (11744669_a_at) / RFU DUSP10 (11751237_a_at) / Fold change /veh DUSP10 (11751237_a_at) / RFU ID3 (11757404_x_at) / Fold change /veh ID3 (11757404_x_at) / RFU PLEKHG5 (11737974_s_at) / Fold change /veh PLEKHG5 (11737974_s_at) / RFU LRRC4B (11730491_at) / Fold change /veh LRRC4B (11730491_at) / RFU GIMAP4 (11747438_a_at) / Fold change /veh GIMAP4 (11747438_a_at) / RFU KRT8 (11758183_x_at) / Fold change /veh KRT8 (11758183_x_at) / RFU CNN1 (11734310_a_at) / Fold change /veh CNN1 (11734310_a_at) / RFU VPS37D (11726825_at) / Fold change /veh VPS37D (11726825_at) / RFU C10orf10 (11716522_x_at) / Fold change /veh C10orf10 (11716522_x_at) / RFU KIR2DL2 /// KIR2DL4 /// KIR2DL5A /// KIR2DL5B /// KIR2DS1 /// KIR2DS2 /// KIR2DS3 /// KIR2DS4 /// KIR3DL3 /// KIR3DL3 /// KIR3DS1 (11738374_at) / Fold change /veh KIR2DL2 /// KIR2DL4 /// KIR2DL5A /// KIR2DL5B /// KIR2DS1 /// KIR2DS2 /// KIR2DS3 /// KIR2DS4 /// KIR3DL3 /// KIR3DL3 /// KIR3DS1 (11738374_at) / RFU C1QL1 (11718748_at) / Fold change /veh C1QL1 (11718748_at) / RFU TMPRSS4 (11747572_a_at) / Fold change /veh TMPRSS4 (11747572_a_at) / RFU HAMP (11756126_x_at) / Fold change /veh HAMP (11756126_x_at) / RFU RNFT2 (11725882_a_at) / Fold change /veh RNFT2 (11725882_a_at) / RFU NR4A2 (11747474_a_at) / Fold change /veh NR4A2 (11747474_a_at) / RFU ABCC12 (11746883_a_at) / Fold change /veh ABCC12 (11746883_a_at) / RFU TMEM136 (11760407_x_at) / Fold change /veh TMEM136 (11760407_x_at) / RFU CLDN22 /// WWC2 (11732394_at) / Fold change /veh CLDN22 /// WWC2 (11732394_at) / RFU HLA-DPB1 (11760878_x_at) / Fold change /veh HLA-DPB1 (11760878_x_at) / RFU SPINT1 (11716480_a_at) / Fold change /veh SPINT1 (11716480_a_at) / RFU GAP43 (11754022_s_at) / Fold change /veh GAP43 (11754022_s_at) / RFU A4GNT (11735810_at) / Fold change /veh A4GNT (11735810_at) / RFU PRB3 (11715151_x_at) / Fold change /veh PRB3 (11715151_x_at) / RFU TUBB4B (11761932_at) / Fold change /veh TUBB4B (11761932_at) / RFU CAPN14 (11732068_a_at) / Fold change /veh CAPN14 (11732068_a_at) / RFU TMCC2 (11721928_a_at) / Fold change /veh TMCC2 (11721928_a_at) / RFU IRGQ (11745062_a_at) / Fold change /veh IRGQ (11745062_a_at) / RFU FAM174B (11720279_a_at) / Fold change /veh FAM174B (11720279_a_at) / RFU TMPRSS4 (11748680_a_at) / Fold change /veh TMPRSS4 (11748680_a_at) / RFU FAM212B (11763350_a_at) / Fold change /veh FAM212B (11763350_a_at) / RFU PLEKHG5 (11743358_a_at) / Fold change /veh PLEKHG5 (11743358_a_at) / RFU ZSCAN30 (11745921_a_at) / Fold change /veh ZSCAN30 (11745921_a_at) / RFU CMKLR1 (11741424_a_at) / Fold change /veh CMKLR1 (11741424_a_at) / RFU LOC101060620 /// MAPK8IP1 (11723275_at) / Fold change /veh LOC101060620 /// MAPK8IP1 (11723275_at) / RFU SPTSSB (11747773_x_at) / Fold change /veh SPTSSB (11747773_x_at) / RFU PRSS12 (11739890_at) / Fold change /veh PRSS12 (11739890_at) / RFU BIN1 (11741810_x_at) / Fold change /veh BIN1 (11741810_x_at) / RFU WNT11 (11732464_a_at) / Fold change /veh WNT11 (11732464_a_at) / RFU C10orf10 (11716521_a_at) / Fold change /veh C10orf10 (11716521_a_at) / RFU C5orf56 (11738089_at) / Fold change /veh C5orf56 (11738089_at) / RFU CYB561 (11721691_x_at) / Fold change /veh CYB561 (11721691_x_at) / RFU ANKRD19P (11752326_a_at) / Fold change /veh ANKRD19P (11752326_a_at) / RFU OR2T12 /// OR2T33 /// OR2T8 (11738714_s_at) / Fold change /veh OR2T12 /// OR2T33 /// OR2T8 (11738714_s_at) / RFU VCAN (11748164_a_at) / Fold change /veh VCAN (11748164_a_at) / RFU JSRP1 (11732532_at) / Fold change /veh JSRP1 (11732532_at) / RFU KRTAP10-11 (11738290_x_at) / Fold change /veh KRTAP10-11 (11738290_x_at) / RFU MYO3A (11730013_a_at) / Fold change /veh MYO3A (11730013_a_at) / RFU EBF3 (11725865_a_at) / Fold change /veh EBF3 (11725865_a_at) / RFU CAMK2N1 (11719241_x_at) / Fold change /veh CAMK2N1 (11719241_x_at) / RFU C5orf56 (11738088_a_at) / Fold change /veh C5orf56 (11738088_a_at) / RFU OLFML3 (11715873_a_at) / Fold change /veh OLFML3 (11715873_a_at) / RFU LOC100653217 /// NTM (11731650_a_at) / Fold change /veh LOC100653217 /// NTM (11731650_a_at) / RFU MAPK11 (11762145_a_at) / Fold change /veh MAPK11 (11762145_a_at) / RFU FIZ1 (11724087_x_at) / Fold change /veh FIZ1 (11724087_x_at) / RFU OASL (11726364_x_at) / Fold change /veh OASL (11726364_x_at) / RFU SOX15 (11748057_x_at) / Fold change /veh SOX15 (11748057_x_at) / RFU CD79A (11719716_a_at) / Fold change /veh CD79A (11719716_a_at) / RFU HIST1H1D (11736915_at) / Fold change /veh HIST1H1D (11736915_at) / RFU CASKIN2 (11723855_a_at) / Fold change /veh CASKIN2 (11723855_a_at) / RFU LOC730098 (11760151_x_at) / Fold change /veh LOC730098 (11760151_x_at) / RFU OR4N2 (11742367_at) / Fold change /veh OR4N2 (11742367_at) / RFU PRRT2 (11749266_a_at) / Fold change /veh PRRT2 (11749266_a_at) / RFU SNX32 (11753110_a_at) / Fold change /veh SNX32 (11753110_a_at) / RFU CDHR5 (11726645_a_at) / Fold change /veh CDHR5 (11726645_a_at) / RFU RCAN1 (11760418_a_at) / Fold change /veh RCAN1 (11760418_a_at) / RFU FAM167A (11723789_a_at) / Fold change /veh FAM167A (11723789_a_at) / RFU FAM26E (11764081_at) / Fold change /veh FAM26E (11764081_at) / RFU ISYNA1 (11749810_s_at) / Fold change /veh ISYNA1 (11749810_s_at) / RFU ACY1 (11761880_at) / Fold change /veh ACY1 (11761880_at) / RFU 11764098_at / Fold change /veh 11764098_at / RFU SAMD14 (11745864_x_at) / Fold change /veh SAMD14 (11745864_x_at) / RFU NPB (11741838_a_at) / Fold change /veh NPB (11741838_a_at) / RFU TMPRSS6 (11731388_a_at) / Fold change /veh TMPRSS6 (11731388_a_at) / RFU KRTAP10-2 (11738614_at) / Fold change /veh KRTAP10-2 (11738614_at) / RFU ARHGAP8 /// PRR5-ARHGAP8 (11727945_x_at) / Fold change /veh ARHGAP8 /// PRR5-ARHGAP8 (11727945_x_at) / RFU KRTAP5-7 /// NADSYN1 (11734609_at) / Fold change /veh KRTAP5-7 /// NADSYN1 (11734609_at) / RFU RASL12 (11751679_a_at) / Fold change /veh RASL12 (11751679_a_at) / RFU CDKN2B (11736163_a_at) / Fold change /veh CDKN2B (11736163_a_at) / RFU PRF1 (11729649_at) / Fold change /veh PRF1 (11729649_at) / RFU, ZNF638 /// ZNF638-IT1 / Fold change vs veh, ZNF638 /// ZNF638-IT1 / RFU, PANK3 / Fold change vs veh, PANK3 / RFU, SH3YL1 / Fold change vs veh, SH3YL1 / RFU, ZEB2 / Fold change vs veh, ZEB2 / RFU, NRIP1 / Fold change vs veh, NRIP1 / RFU, PTTG1IP / Fold change vs veh, PTTG1IP / RFU, CAPN2 / Fold change vs veh, CAPN2 / RFU, MED14 / Fold change vs veh, MED14 / RFU, SNORA58 / Fold change vs veh, SNORA58 / RFU, C1orf63 / Fold change vs veh, C1orf63 / RFU, LRRFIP1 / Fold change vs veh, LRRFIP1 / RFU, NDUFAF7 / Fold change vs veh, NDUFAF7 / RFU, SLC12A2 / Fold change vs veh, SLC12A2 / RFU, IBTK / Fold change vs veh, IBTK / RFU, ESF1 / Fold change vs veh, ESF1 / Fold change vs veh, TMEM50B / RFU, TAOK1 / Fold change vs veh, TAOK1 / RFU, ACBD3 / Fold change vs veh, ACBD3 / RFU, TMA16 / Fold change vs veh, TMA16 / RFU, RWDD3 / Fold change vs veh, RWDD3 / RFU, BCAT1 / Fold change vs veh, BCAT1 / RFU, EDEM3 / Fold change vs veh, EDEM3 / RFU, TMEM33 / Fold change vs veh, TMEM33 / RFU, WDR75 / Fold change vs veh, WDR75 / RFU, AHCTF1 / Fold change vs veh, AHCTF1 / RFU, TFRC / Fold change vs veh, TFRC / RFU, ZDHHC17 / Fold change vs veh, ZDHHC17 / RFU, NOM1 / Fold change vs veh, NOM1 / RFU, ARL8B / Fold change vs veh, ARL8B / RFU, ZBTB11 / Fold change vs veh, ZBTB11 / RFU, TAMM41 / Fold change vs veh, TAMM41 / RFU, KIAA1704 /// LOC100996395 / Fold change vs veh, KIAA1704 /// LOC100996395 / RFU, ING1 / Fold change vs veh, ING1 / RFU, TRMT61B / Fold change vs veh, TRMT61B / RFU, FUBP3 / Fold change vs veh, FUBP3 / RFU, TP53 / Fold change vs veh, TP53 / RFU, TNKS2 / Fold change vs veh, TNKS2 / RFU, ZFP14 / Fold change vs veh, ZFP14 / RFU, ACTR2 / Fold change vs veh, ACTR2 / RFU, PPP3R1 / Fold change vs veh, PPP3R1 / RFU, PIK3R1 / Fold change vs veh, PIK3R1 / RFU, HNRNPA1 / Fold change vs veh, HNRNPA1 / RFU, RNF170 / Fold change vs veh, RNF170 / RFU, ZNF28 / Fold change vs veh, ZNF28 / RFU, RNGTT / Fold change vs veh, RNGTT / RFU, OGT / Fold change vs veh, OGT / RFU, BRD1 / Fold change vs veh, BRD1 / RFU, MARS / Fold change vs veh, MARS / RFU, ZNF655 / Fold change vs veh, ZNF655 / RFU, FAHD1 / Fold change vs veh, FAHD1 / RFU, BDP1 / Fold change vs veh, BDP1 / RFU, LRRCC1 / Fold change vs veh, LRRCC1 / RFU, ARID1A / Fold change vs veh, ARID1A / RFU, ZNF146 / Fold change vs veh, ZNF146 / RFU, ZNF330 / Fold change vs veh, ZNF330 / RFU, GPN3 / Fold change vs veh, GPN3 / RFU, C9orf123 / Fold change vs veh, C9orf123 / RFU, N4BP2L2 / Fold change vs veh, N4BP2L2 / RFU, ARFIP1 / Fold change vs veh, ARFIP1 / RFU, FAM179B / Fold change vs veh, FAM179B / RFU, BCL10 / Fold change vs veh, BCL10 / RFU, UHRF1BP1L / Fold change vs veh, UHRF1BP1L / RFU, BET1 / Fold change vs veh, BET1 / RFU, CNOT2 / Fold change vs veh, CNOT2 / RFU, ZNF268 / Fold change vs veh, ZNF268 / Fold change vs veh, ZNF507 / RFU, DGCR2 / Fold change vs veh, DGCR2 / RFU, WDSUB1 / Fold change vs veh, WDSUB1 / Fold change vs veh, HSP90B1 /// MIR3652 / RFU, ADSS / Fold change vs veh, ADSS / RFU, GK / Fold change vs veh, GK / RFU, ZNF148 / Fold change vs veh, ZNF148 / RFU, TAF9 / Fold change vs veh, TAF9 / RFU, SLC1A5 / Fold change vs veh, SLC1A5 / RFU, SLMO2 / Fold change vs veh, SLMO2 / RFU, ABCC4 / Fold change vs veh, ABCC4 / RFU, LOC101060439 /// RAP1B / Fold change vs veh, LOC101060439 /// RAP1B / RFU, RFX7 / Fold change vs veh, RFX7 / RFU, GTPBP10 / Fold change vs veh, GTPBP10 / RFU, CNEP1R1 / Fold change vs veh, CNEP1R1 / RFU, BIVM-ERCC5 /// ERCC5 / Fold change vs veh, BIVM-ERCC5 /// ERCC5 / RFU, ILF3 / Fold change vs veh, ILF3 / RFU 11762660_at / Fold change /veh 11762660_at / RFU VCAN (11757783_s_at) / Fold change /veh VCAN (11757783_s_at) / RFU DDX43 (11728927_at) / Fold change /veh DDX43 (11728927_at) / RFU KRT8 (11758188_x_at) / Fold change /veh KRT8 (11758188_x_at) / RFU NKD1 (11759106_at) / Fold change /veh NKD1 (11759106_at) / RFU SRD5A1 (11742802_a_at) / Fold change /veh SRD5A1 (11742802_a_at) / RFU TPSAB1 /// TPSB2 (11721975_s_at) / Fold change /veh TPSAB1 /// TPSB2 (11721975_s_at) / RFU GSTM3 (11746129_a_at) / Fold change /veh GSTM3 (11746129_a_at) / RFU IL23R (11737362_x_at) / Fold change /veh IL23R (11737362_x_at) / RFU TMEM51 (11727254_a_at) / Fold change /veh TMEM51 (11727254_a_at) / RFU PIWIL2 (11732686_x_at) / Fold change /veh PIWIL2 (11732686_x_at) / RFU ORM1 (11744905_x_at) / Fold change /veh ORM1 (11744905_x_at) / RFU CCDC152 (11743942_at) / Fold change /veh CCDC152 (11743942_at) / RFU ECM1 (11717891_a_at) / Fold change /veh ECM1 (11717891_a_at) / RFU IL23R (11748794_a_at) / Fold change /veh IL23R (11748794_a_at) / RFU TNFAIP8L3 (11732012_x_at) / Fold change /veh TNFAIP8L3 (11732012_x_at) / RFU MBOAT4 (11741988_at) / Fold change /veh MBOAT4 (11741988_at) / RFU 11764193_at / Fold change /veh 11764193_at / RFU TMEM53 (11763286_at) / Fold change /veh TMEM53 (11763286_at) / RFU MAGEB2 (11727129_at) / Fold change /veh MAGEB2 (11727129_at) / RFU TMEM200A (11744735_a_at) / Fold change /veh TMEM200A (11744735_a_at) / RFU CCDC152 (11751479_a_at) / Fold change /veh CCDC152 (11751479_a_at) / RFU FAM211A (11726209_a_at) / Fold change /veh FAM211A (11726209_a_at) / RFU RGS16 (11746705_a_at) / Fold change /veh RGS16 (11746705_a_at) / RFU VCAN (11755009_s_at) / Fold change /veh VCAN (11755009_s_at) / RFU RHOB (11743442_s_at) / Fold change /veh RHOB (11743442_s_at) / RFU RGS16 (11720943_a_at) / Fold change /veh RGS16 (11720943_a_at) / RFU RGS16 (11720944_at) / Fold change /veh RGS16 (11720944_at) / RFU, VPS4B / Fold change vs veh, VPS4B / RFU, CREB1 / Fold change vs veh, CREB1 / RFU, DNAJC13 / Fold change vs veh, DNAJC13 / RFU, GNAQ / Fold change vs veh, GNAQ / RFU, CDK5R1 / Fold change vs veh, CDK5R1 / RFU, ZRANB3 / Fold change vs veh, ZRANB3 / RFU, CUL4A / Fold change vs veh, CUL4A / RFU, CCNY / Fold change vs veh, CCNY / RFU, UFL1 / Fold change vs veh, UFL1 / RFU, COG3 / Fold change vs veh, COG3 / RFU, DIAPH2 / Fold change vs veh, DIAPH2 / RFU, SKA2 / Fold change vs veh, SKA2 / RFU, AFF3 / Fold change vs veh, AFF3 / RFU, LMF1 / Fold change vs veh, LMF1 / RFU, IPO11 / Fold change vs veh, IPO11 / RFU, DFFB / Fold change vs veh, DFFB / RFU, FOXP1 / Fold change vs veh, FOXP1 / RFU, CARD8 / Fold change vs veh, CARD8 / RFU, STRN3 / Fold change vs veh, STRN3 / RFU, ADK / Fold change vs veh, ADK / RFU, RASSF2 / Fold change vs veh, RASSF2 / RFU, WIPF1 / Fold change vs veh, WIPF1 / RFU, LARP1B / Fold change vs veh, LARP1B / RFU, RASA1 / Fold change vs veh, RASA1 / RFU, RB1 / Fold change vs veh, RB1 / RFU, PPFIA1 / Fold change vs veh, PPFIA1 / RFU, MAT2A / Fold change vs veh, MAT2A / RFU, CCT5 / Fold change vs veh, CCT5 / RFU, WDR92 / Fold change vs veh, WDR92 / RFU, CUX1 / Fold change vs veh, CUX1 / RFU, TTC7A / Fold change vs veh, TTC7A / RFU, TMEM135 / Fold change vs veh, TMEM135 / RFU, DEPTOR / Fold change vs veh, DEPTOR / RFU, CPM / Fold change vs veh, CPM / RFU, DNAJB6 / Fold change vs veh, DNAJB6 / RFU, CACNA2D3 / Fold change vs veh, CACNA2D3 / RFU, DTX4 / Fold change vs veh, DTX4 / RFU, TFCP2 / Fold change vs veh, TFCP2 / RFU, GMCL1 /// GMCL1P1 / Fold change vs veh, GMCL1 /// GMCL1P1 / RFU, AEBP2 / Fold change vs veh, AEBP2 / RFU, SNHG1 /// SNORD22 /// SNORD25 /// SNORD26 /// SNORD27 /// SNORD28 /// SNORD29 /// SNORD31 / Fold change vs veh, SNHG1 /// SNORD22 /// SNORD25 /// SNORD26 /// SNORD27 /// SNORD28 /// SNORD29 /// SNORD31 / Fold change (Aza/veh), C12orf56 (ProbeSet 11735607_a_at) / Fold change (ACY-1035/veh), C12orf56 (ProbeSet 11735607_a_at) / Fold change (Aza/veh), FGFR1OP (ProbeSet 11751329_s_at) / Fold change (ACY-1035/veh), FGFR1OP (ProbeSet 11751329_s_at) / Fold change (Aza/veh), VPS36 (ProbeSet 11739960_a_at) / Fold change (ACY-1035/veh), VPS36 (ProbeSet 11739960_a_at) / RFU SYPL1 (11715823_x_at) / Fold change /veh SYPL1 (11715823_x_at) / RFU IGFBP7 (11715501_s_at) / Fold change /veh IGFBP7 (11715501_s_at) / RFU REEP3 (11722064_at) / Fold change /veh REEP3 (11722064_at) / RFU IGLL1 (11728026_x_at) / Fold change /veh IGLL1 (11728026_x_at): dose or concentration left out as unconfirmed
Conditions: ProbeSet 11741311_a_at; LIST B

For `Nc1ccc(-c2cccs2)cc1NC(=O)c1ccc2c(c1)cc(C1CC1)n2CCN1CCOCC1` [ACY-1035], the “Fold change vs veh, ZNF655” value was 0.99.
